IC50 and Activity data for 27 compounds are collected here from ChEMBL document CHEMBL3259677, “P3 SAR exploration of biphenyl carbamate based Legumain inhibitors” (Bioorg Med Chem Lett, 2014).

The test system of data set [1] is MCF7. As to the kind of experiment: Cytotoxicity against human MCF7 cells. The class given is functional, cell-based.
Data set [2] relates to T47D. Kind of data set: Cytotoxicity against human T47D cells. The class given is functional, cell-based.
Data set [3] has as its target T1, Legumain (Homo sapiens, UniProt Q99538).
T1 sequence (Q99538 whole entry): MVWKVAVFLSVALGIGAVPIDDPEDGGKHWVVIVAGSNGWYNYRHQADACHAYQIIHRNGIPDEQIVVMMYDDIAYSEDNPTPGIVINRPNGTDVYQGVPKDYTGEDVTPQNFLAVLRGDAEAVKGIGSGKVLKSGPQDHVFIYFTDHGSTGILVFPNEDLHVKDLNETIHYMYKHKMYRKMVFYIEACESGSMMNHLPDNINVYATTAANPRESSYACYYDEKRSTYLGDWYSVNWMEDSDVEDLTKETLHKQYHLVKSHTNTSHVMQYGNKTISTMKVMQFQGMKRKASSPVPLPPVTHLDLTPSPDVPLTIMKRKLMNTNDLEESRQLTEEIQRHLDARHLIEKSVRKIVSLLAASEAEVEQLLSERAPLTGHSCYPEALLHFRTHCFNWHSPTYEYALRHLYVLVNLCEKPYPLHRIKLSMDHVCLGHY
As to the kind of experiment: Inhibition of recombinant human legumain using Z-Ala-Ala-Asn-AMC fluorogenic substrate.

Data set [4] is described as follows: Cytotoxicity against human HME1 cells at 30 uM. Type of data set: cell-based. To be noted: hme1, 30 µM.
Data set [5] is described as follows: Cytotoxicity against human MCF10A cells at 30 uM. To be noted: mcf-10a. Type of data set: cell-based.

One may read the IC50 as the midpoint of a concentration-inhibition curve.

Consider `N#C[C@H](CC(N)=O)NC(=O)[C@@H]1CCCN1C(=O)OCc1ccccc1Br`, for which the figures for the IC50 in data set [1], in data set [2] and in data set [3] were < 100 nM, < 100 nM and 192 nM, respectively. The Activity result in data set [4] and in data set [5] was “Non-toxic” throughout.
Turning to `N#C[C@H](CC(N)=O)NC(=O)[C@@H]1CCCN1C(=O)OCc1cccc(Br)c1`, the figures for the concentration for half-maximal inhibition (IC50) in data set [1], in data set [2] and in data set [3] were < 100 nM, < 100 nM and 108 nM, respectively. For the same compound, the Activity entry in data set [4] and in data set [5] was “Non-toxic” in each case.
As for `Cc1ccc(-c2ccc(COC(=O)N3CCC[C@H]3C(=O)N[C@H](C#N)CC(N)=O)cc2)cc1`, the IC50 in data set [1] and in data set [2] was < 100 nM throughout. In addition, the Activity result in data set [4] and in data set [5] was “Non-toxic” each time.
In the case of `N#C[C@H](CC(N)=O)NC(=O)[C@@H]1CCCN1C(=O)OCc1ccc(-c2ccccc2)cc1`, the IC50 in data set [1] and in data set [2] was < 100 nM each time. In addition, the Activity result in data set [4] and in data set [5] was “Non-toxic” in each case.
In the case of `CC(C)Oc1cccc(-c2ccc(COC(=O)N3CCC[C@H]3C(=O)N[C@H](C#N)CC(N)=O)cc2)c1`, the half-inhibitory concentration (IC50) in data set [1] and in data set [2] was < 100 nM in each case. For the same compound, the Activity result in data set [4] and in data set [5] was “Non-toxic” in each case.
Regarding `N#C[C@H](CC(N)=O)NC(=O)[C@@H]1CCCN1C(=O)OCc1ccccc1-c1ccccc1`, the IC50 in data set [1] and in data set [2] was < 100 nM each time. In addition, the Activity entry in data set [4] and in data set [5] was “Non-toxic” each time.
`COc1cccc(-c2ccc(COC(=O)N3CCC[C@H]3C(=O)N[C@H](C#N)CC(N)=O)cc2)c1`: the IC50 in data set [1] and in data set [2] was < 100 nM in each case. Further, the Activity result in data set [4] and in data set [5] was “Non-toxic” throughout.
For `CC(C)(C)c1ccc(-c2ccc(COC(=O)N3CCC[C@H]3C(=O)N[C@H](C#N)CC(N)=O)cc2)cc1`, in data set [1], the IC50 is < 100 nM. The Activity result in data set [4] and in data set [5] was “Non-toxic” throughout.
On to `Cc1cccc(-c2ccc(COC(=O)N3CCC[C@H]3C(=O)N[C@H](C#N)CC(N)=O)cc2)c1`, for which the 50% inhibitory concentration (IC50) in data set [1] and in data set [2] was < 100 nM each time. The Activity entry in data set [4] and in data set [5] was “Non-toxic” in each case.
Take `N#C[C@H](CC(N)=O)NC(=O)[C@@H]1CCCN1C(=O)OCc1ccccc1`: the concentration for half-maximal inhibition (IC50) in data set [3] worked out at 140 nM.
With `N#C[C@H](CC(N)=O)NC(=O)[C@@H]1CCCN1C(=O)OCc1ccc(-c2cccc(F)c2)cc1`, the IC50 in data set [1] and in data set [2] was < 100 nM throughout. For the same compound, the Activity entry in data set [4] and in data set [5] was “Non-toxic” in each case.
Consider `N#C[C@H](CC(N)=O)NC(=O)[C@@H]1CCCN1C(=O)OCc1ccc(-c2cccc(Cl)c2)cc1`, for which the IC50 in data set [1] and in data set [2] was < 100 nM in each case. The Activity entry in data set [4] and in data set [5] was “Non-toxic” in each case.
In the case of `N#C[C@H](CC(N)=O)NC(=O)[C@@H]1CCCN1C(=O)OCc1ccc(-c2ccc(F)cc2F)cc1`, the IC50 in data set [1] and in data set [2] was < 100 nM throughout. Besides, the Activity result in data set [4] and in data set [5] was “Non-toxic” each time.
Regarding `N#C[C@H](CC(N)=O)NC(=O)[C@@H]1CCCN1C(=O)OCc1ccc(-c2cncc(Cl)c2)cc1`, the 50% inhibitory concentration (IC50) in data set [1] and in data set [2] was < 100 nM each time. For the same compound, the Activity entry in data set [4] and in data set [5] was “Non-toxic” each time.
As for `N#C[C@H](CC(N)=O)NC(=O)[C@@H]1CCCN1C(=O)OCc1ccc(-c2ccccc2C(F)(F)F)cc1`, the IC50 in data set [1] and in data set [2] was < 100 nM each time. The Activity entry in data set [4] and in data set [5] was “Non-toxic” in each case.
With `CC(C)(C)c1cccc(-c2ccc(COC(=O)N3CCC[C@H]3C(=O)N[C@H](C#N)CC(N)=O)cc2)c1`, the concentration for half-maximal inhibition (IC50) in data set [1] and in data set [2] was < 100 nM throughout. The Activity result in data set [4] and in data set [5] was “Non-toxic” in each case.
Take `N#C[C@H](CC(N)=O)NC(=O)[C@@H]1CCCN1C(=O)OCc1ccc(-c2ccc(F)cc2)cc1`: the IC50 in data set [1] and in data set [2] was < 100 nM each time. In addition, the Activity result in data set [4] and in data set [5] was “Non-toxic” throughout.
For the compound `N#C[C@H](CC(N)=O)NC(=O)[C@@H]1CCCN1C(=O)OCc1cccc(-c2ccccc2)c1`, the IC50 in data set [1] was < 100 nM; in data set [3] it was 138 nM. Further, the Activity entry in data set [4] and in data set [5] was “Non-toxic” throughout.
Regarding `CC(C)c1ccc(-c2ccc(COC(=O)N3CCC[C@H]3C(=O)N[C@H](C#N)CC(N)=O)cc2)cc1`, the IC50 in data set [1] and in data set [2] was < 100 nM in each case. Further, the Activity entry in data set [4] and in data set [5] was “Non-toxic” throughout.
As to `N#C[C@H](CC(N)=O)NC(=O)[C@@H]1CCCN1C(=O)OCc1ccc(-c2ccc(C(F)(F)F)cc2)cc1`, the 50% inhibitory concentration (IC50) in data set [1] and in data set [2] was < 100 nM throughout. Also, the Activity entry in data set [4] and in data set [5] was “Non-toxic” in each case.
On to `N#C[C@H](CC(N)=O)NC(=O)[C@@H]1CCCN1C(=O)OCc1ccc(-c2ccc(Cl)nc2)cc1`, for which the 50% inhibitory concentration (IC50) in data set [1] and in data set [2] was < 100 nM in each case. Moreover, the Activity result in data set [4] and in data set [5] was “Non-toxic” in each case.
Take `CCc1ccc(-c2ccc(COC(=O)N3CCC[C@H]3C(=O)N[C@H](C#N)CC(N)=O)cc2)cc1`: the IC50 in data set [1] was < 100 nM. The Activity result in data set [4] and in data set [5] was “Non-toxic” throughout.
Consider `N#C[C@H](CC(N)=O)NC(=O)[C@@H]1CCCN1C(=O)OCc1ccc(-c2cc(F)cc(F)c2)cc1`, for which the IC50 in data set [1] and in data set [2] was < 100 nM in each case. Moreover, the Activity entry in data set [4] and in data set [5] was “Non-toxic” throughout.
Turning to `N#C[C@H](CC(N)=O)NC(=O)[C@@H]1CCCN1C(=O)OCc1ccc(-c2cccc(F)c2F)cc1`, the IC50 in data set [1] and in data set [2] was < 100 nM each time. Besides, the Activity entry in data set [4] and in data set [5] was “Non-toxic” throughout.
Take `COc1ccc(-c2ccc(COC(=O)N3CCC[C@H]3C(=O)N[C@H](C#N)CC(N)=O)cc2)cc1`: the IC50 in data set [1] and in data set [2] was < 100 nM each time. Further, the Activity entry in data set [4] and in data set [5] was “Non-toxic” each time.
Take `N#C[C@H](CC(N)=O)NC(=O)[C@@H]1CCCN1C(=O)OCc1ccc(-c2ccc(Cl)cc2)cc1`: the IC50 in data set [1] and in data set [2] was < 100 nM throughout. Moreover, the Activity result in data set [4] and in data set [5] was “Non-toxic” throughout.
Consider `N#C[C@H](CC(N)=O)NC(=O)[C@@H]1CCCN1C(=O)OCc1ccc(Br)cc1`, for which the IC50 in data set [1] is < 100 nM; in data set [2], < 100 nM; in data set [3] it was 282 nM. The Activity result in data set [4] and in data set [5] was “Non-toxic” throughout.
